Results taken from patent publication US11021445B2, “Carboxylic acid derivative as AT2R receptor antagonist” (SHANDONG DANHONG PHARMACEUTICAL CO., LTD., priority 2017, dated 2021).

Each compound was assayed against T1, hAT2 (Homo sapiens, UniProt P50052) (assay: hAT2 receptor binding assay (SPA, [125I]-Sar1-Ile8-Angiotensin II)). Conditions: membrane of HEK-293 cells overexpressing hAT2; 0.1 nM 125I ligand.
T1 construct: expressed in transfected cells; host or cells: HEK-293
T1 sequence (P50052 1-363): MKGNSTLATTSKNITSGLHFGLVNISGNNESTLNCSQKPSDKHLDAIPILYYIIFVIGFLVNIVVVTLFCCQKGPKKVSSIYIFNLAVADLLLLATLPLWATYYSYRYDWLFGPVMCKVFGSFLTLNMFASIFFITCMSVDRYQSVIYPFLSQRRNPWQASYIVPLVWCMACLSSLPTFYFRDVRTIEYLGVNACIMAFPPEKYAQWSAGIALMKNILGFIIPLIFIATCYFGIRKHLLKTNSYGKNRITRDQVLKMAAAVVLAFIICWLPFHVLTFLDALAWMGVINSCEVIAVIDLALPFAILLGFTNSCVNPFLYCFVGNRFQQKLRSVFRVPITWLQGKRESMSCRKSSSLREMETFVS
Summary of the method: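 Membranes from HEK-293 cells overexpressing hAT2 were used at 1.25 μg/well with 250 μg/well SPA beads. Compounds were tested as 8-point 3-fold dilutions, with stocks diluted 250-fold into the reaction. [125I]-Sar1-Ile8-Angiotensin II was present at 0.1 nM final, incubated overnight at room temperature with shaking, then read by scintillation proximity.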

SMILES | IC50 [nM]
COc1ccc2c(c1OCc1ccccc1)C[C@@H](C(=O)O)N(C(=O)[C@@H](OC1CC(F)(F)C1)c1ccccc1)C2 [Compound 51] | 3.2
COc1ccc2c(c1OCc1ccccc1)C[C@@H](C(=O)O)N(C(=O)[C@@H](O[C@H]1CC[C@@H](O)CC1)c1ccccc1)C2 [Compound 63] | 10.3

Other lines, results leading:

IC50 [nM] | SMILES
4.1 | COc1ccc2c(c1OCc1ccccc1)C[C@@H](C(=O)O)N(C(=O)[C@@H](OC1CCCC1)c1ccccc1)C2 [Compound 37]
5.8 | COc1ccc2c(c1OCc1ccccc1)C[C@@H](C(=O)O)N(C(=O)[C@@H](OC1(C)CCCC1)c1ccccc1)C2 [Compound 57]
13.2 | O=C(O)[C@@H]1Cc2c(ccc(Cl)c2OCc2ccccc2)CN1C(=O)[C@@H](OC1CCCC1)c1ccccc1 [Compound 107]
